From PubChem BioAssay AID2031 (NMMLSC, 2009)

Target: Rab7 GTPase wild-type (dog), GST fusion
Assay: analogs blocking nucleotide binding to wildtype Rab7 – biochemical, oxadiazole analogs, multiplex bead flow cytometry, SAR follow-up (AID 2031)
Conditions: bead-based flow cytometry, Bodipy-FL-GTP binding; Ki calculated from EC50

Structure (SMILES)	Ki
COc1ccc(-c2noc(CCC(=O)N3CCN(c4ccccc4Br)CC3)n2)cc1	150 nM
COc1ccc(-c2noc(CCC(=O)N3CCN(c4ccccc4Cl)CC3)n2)cc1	150 nM
COc1ccc(-c2noc(CCC(=O)N3CCN(c4cccc(Cl)c4)CC3)n2)cc1	2030 nM
Cc1cccc(-c2noc(CCC(=O)N3CCN(c4cc(C)ccc4C)CC3)n2)c1	70 nM
Cc1ccc(C)c(N2CCN(C(=O)CCc3nc(-c4cccc(F)c4)no3)CC2)c1	510 nM
COc1ccc(-c2noc(CCC(=O)N3CCC(c4cc(C)ccc4C)CC3)n2)cc1	90 nM
Cc1ccc(C)c(N2CCN(C(=O)CCc3nc(-c4ccccc4)no3)CC2)c1	80 nM
COc1ccc(-c2cc(CCC(=O)N3CCN(c4cc(C)ccc4C)CC3)on2)cc1	20 nM
COc1ccc(-c2noc(CCC(=O)N3CCN(c4ccccc4F)CC3)n2)cc1	40 nM
COc1cccc(-c2noc(CCC(=O)N3CCN(c4cc(C)ccc4C)CC3)n2)c1	220 nM
Cc1ccc(C)c(N2CCN(C(=O)CCc3nc(-c4ccccc4Br)no3)CC2)c1	270 nM
Cc1ccc(C)c(N2CCN(C(=O)CCc3nc(-c4ccccc4C)no3)CC2)c1	360 nM
COc1ccc(-c2noc(CCCC(=O)N3CCN(c4cc(C)ccc4C)CC3)n2)cc1	940 nM
Cc1ccc(C)c(N2CCN(C(=O)CCc3nc(-c4ccc(F)cc4)no3)CC2)c1	40 nM

Further molecules by falling Ki, results first:

Ki	Structure (SMILES)
290 nM	Cc1ccc(-c2noc(CCC(=O)N3CCN(c4cc(C)ccc4C)CC3)n2)cc1
230 nM	Cc1ccc(C)c(N2CCN(C(=O)CCc3nc(-c4cccc(Br)c4)no3)CC2)c1
190 nM	Cc1ccc(C)c(N2CCN(C(=O)CCc3nc(-c4ccc(Cl)cc4)no3)CC2)c1
160 nM	COc1ccc(-c2noc(CCC(=O)N3CCN(c4cc(C)ccc4C)CC3)n2)cc1
130 nM	COc1ccc(-c2noc(CCC(=O)N3CCN(c4ccccc4C(F)(F)F)CC3)n2)cc1
100 nM	COc1ccc(-c2noc(CCC(=O)N3CCN(c4cccc(C)c4C)CC3)n2)cc1
100 nM	Cc1ccc(C)c(N2CCN(C(=O)CCc3nc(-c4ccc(Br)cc4)no3)CC2)c1
50 nM	Cc1ccc(C)c(N2CCN(C(=O)CCc3nc(-c4cccc(C(F)(F)F)c4)no3)CC2)c1
